From PMC8773171, “Development of Small-Molecule STING Activators for Cancer Immunotherapy” (Biomedicines, 2021) come the findings set out here.

This assay deals with T1, STING (Homo sapiens, UniProt Q86WV6).
T1 construct: gene STING1; human STING WT protein 6His-tagged (recombinant)
The experiment in a line: HTRF ligand-competitive binding assay with recombinant human STING; supported by CETSA in THP-1 cells.

Where only a bound is given, the exact number is not on record here.

T1 sequence (Q86WV6 whole entry): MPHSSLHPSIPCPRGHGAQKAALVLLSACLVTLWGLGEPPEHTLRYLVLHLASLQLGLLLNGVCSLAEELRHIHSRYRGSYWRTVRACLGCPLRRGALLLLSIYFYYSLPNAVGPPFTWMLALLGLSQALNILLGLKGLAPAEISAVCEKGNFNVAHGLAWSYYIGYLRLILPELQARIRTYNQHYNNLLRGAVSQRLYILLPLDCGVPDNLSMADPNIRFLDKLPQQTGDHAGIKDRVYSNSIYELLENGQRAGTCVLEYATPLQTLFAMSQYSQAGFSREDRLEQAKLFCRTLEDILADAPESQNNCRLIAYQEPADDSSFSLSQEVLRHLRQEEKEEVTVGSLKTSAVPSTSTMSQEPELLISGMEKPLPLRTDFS

In the case of `Nc1ccc(C(=O)N2CCc3cc(S(=O)(=O)N4C[C@H](c5ccccc5)NC4=O)ccc32)cc1` [DW2282], the “STING competitive binding potency” value is above 10 µM.
